Here are results for three compounds from ChEMBL document CHEMBL2384992, “Conformation constraint of anilides enabling the discovery of tricyclic lactams as potent MK2 non-ATP competitive inhibitors” (Bioorg Med Chem Lett, 2013).

Data set [1] can be described thus: Toxicity in human SW1353 cells. Format: cell-based.
The target of data set [2] is Tyrosine-protein kinase JAK2 (Homo sapiens, UniProt O60674). Put plainly: Inhibition of JAK2 (unknown origin).
For data set [3], the target named is Inhibitor of nuclear factor kappa-B kinase subunit beta (Homo sapiens, UniProt O14920). The experiment in a line: Inhibition of IKKB (unknown origin).
The target of data set [4] is RAC-alpha serine/threonine-protein kinase (Homo sapiens, UniProt P31749). The experiment in a line: Inhibition of AKT1 (unknown origin).
The target of data set [5] is Insulin-like growth factor 1 receptor (Homo sapiens, UniProt P08069). The experiment in a line: Inhibition of IGF1R (unknown origin).
The target in data set [6] is Casein kinase I isoform delta (Homo sapiens, UniProt P48730). Put plainly: Inhibition of CSNK1D (unknown origin).
Data set [7] has as its target Epidermal growth factor receptor (Homo sapiens, UniProt P00533). The experiment in a line: Inhibition of EGFR (unknown origin).
Data set [8] deals with Rho-associated protein kinase 2 (Homo sapiens, UniProt O75116). The experiment in a line: Inhibition of ROCK2 (unknown origin).
In data set [9] the target is Tyrosine-protein kinase Lck (Homo sapiens, UniProt P06239). The experiment in a line: Inhibition of LCK (unknown origin).
The target in data set [10] is Hepatocyte growth factor receptor (Homo sapiens, UniProt P08581). The experiment in a line: Inhibition of MET (unknown origin).
Another data set addresses Ephrin type-B receptor 4 (Homo sapiens, UniProt P54760). Put plainly: Inhibition of EPHB4 (unknown origin).
In data set [11] the target is Interleukin-1 receptor-associated kinase 4 (Homo sapiens, UniProt Q9NWZ3). The experiment in a line: Inhibition of IRAK4 (unknown origin).
Data set [12] has as its target Serine/threonine-protein kinase Chk1 (Homo sapiens, UniProt O14757). The experiment in a line: Inhibition of CHK1 (unknown origin).
The target in data set [13] is Calcium/calmodulin-dependent protein kinase type IV (Homo sapiens, UniProt Q16566). The experiment in a line: Inhibition of CAMK4 (unknown origin).
In data set [14] the target is Mitogen-activated protein kinase 1 (Homo sapiens, UniProt P28482). Put plainly: Inhibition of ERK2 (unknown origin).
Data set [15] addresses Protein kinase C alpha type (Homo sapiens, UniProt P17252). Put plainly: Inhibition of PKCA (unknown origin).
Data set [16] deals with Receptor-type tyrosine-protein kinase FLT3 (Homo sapiens, UniProt P36888). Put plainly: Inhibition of FLT3 (unknown origin).
Data set [17] addresses Glycogen synthase kinase-3 beta (Homo sapiens, UniProt P49841). Put plainly: Inhibition of GSK3B (unknown origin).
The target of data set [18] is Serine/threonine-protein kinase 3 (Homo sapiens, UniProt Q13188). Put plainly: Inhibition of MST2 (unknown origin).
Data set [19] addresses Testis-specific serine/threonine-protein kinase 2 (Homo sapiens, UniProt Q96PF2). The experiment in a line: Inhibition of TSSK2 (unknown origin).
Data set [20] concerns the target Serine/threonine-protein kinase Nek2 (Homo sapiens, UniProt P51955). The experiment in a line: Inhibition of NEK2 (unknown origin).
Data set [21] deals with MAP kinase-activated protein kinase 2 (Homo sapiens, UniProt P49137).
Description: Inhibition of MK2 (unknown origin) phosphorylation using TAMRA labeled peptide as substrate incubated 30 mins before substrate addition measured after 30 mins
Data set [22] has as its target Serine/threonine-protein kinase PLK3 (Homo sapiens, UniProt Q9H4B4). Put plainly: Inhibition of PLK3 (unknown origin).
The next data set deals with THP-1. Put plainly: cells. Conditions: Homo sapiens.

Chain of Insulin-like growth factor 1 receptor (P08069 31-736 limits assumed): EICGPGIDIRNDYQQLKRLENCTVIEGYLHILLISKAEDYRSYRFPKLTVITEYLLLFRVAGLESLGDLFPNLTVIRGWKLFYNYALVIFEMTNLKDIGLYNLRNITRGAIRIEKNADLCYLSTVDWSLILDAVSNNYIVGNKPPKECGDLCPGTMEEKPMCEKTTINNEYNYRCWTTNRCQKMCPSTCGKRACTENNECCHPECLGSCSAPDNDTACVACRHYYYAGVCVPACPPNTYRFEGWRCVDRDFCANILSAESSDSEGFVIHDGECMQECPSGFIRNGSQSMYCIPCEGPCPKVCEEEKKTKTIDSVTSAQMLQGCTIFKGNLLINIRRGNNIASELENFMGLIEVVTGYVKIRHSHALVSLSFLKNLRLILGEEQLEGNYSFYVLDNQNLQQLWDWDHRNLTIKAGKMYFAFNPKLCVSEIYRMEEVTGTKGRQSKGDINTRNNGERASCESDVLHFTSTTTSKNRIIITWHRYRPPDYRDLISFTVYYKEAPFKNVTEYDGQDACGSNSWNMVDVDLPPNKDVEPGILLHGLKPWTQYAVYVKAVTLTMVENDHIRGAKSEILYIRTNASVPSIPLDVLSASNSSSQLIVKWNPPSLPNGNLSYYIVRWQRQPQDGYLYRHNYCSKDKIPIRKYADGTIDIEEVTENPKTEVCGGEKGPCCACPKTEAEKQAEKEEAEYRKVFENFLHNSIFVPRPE
Chain of Insulin-like growth factor 1 receptor (P08069 741-1367 limits assumed): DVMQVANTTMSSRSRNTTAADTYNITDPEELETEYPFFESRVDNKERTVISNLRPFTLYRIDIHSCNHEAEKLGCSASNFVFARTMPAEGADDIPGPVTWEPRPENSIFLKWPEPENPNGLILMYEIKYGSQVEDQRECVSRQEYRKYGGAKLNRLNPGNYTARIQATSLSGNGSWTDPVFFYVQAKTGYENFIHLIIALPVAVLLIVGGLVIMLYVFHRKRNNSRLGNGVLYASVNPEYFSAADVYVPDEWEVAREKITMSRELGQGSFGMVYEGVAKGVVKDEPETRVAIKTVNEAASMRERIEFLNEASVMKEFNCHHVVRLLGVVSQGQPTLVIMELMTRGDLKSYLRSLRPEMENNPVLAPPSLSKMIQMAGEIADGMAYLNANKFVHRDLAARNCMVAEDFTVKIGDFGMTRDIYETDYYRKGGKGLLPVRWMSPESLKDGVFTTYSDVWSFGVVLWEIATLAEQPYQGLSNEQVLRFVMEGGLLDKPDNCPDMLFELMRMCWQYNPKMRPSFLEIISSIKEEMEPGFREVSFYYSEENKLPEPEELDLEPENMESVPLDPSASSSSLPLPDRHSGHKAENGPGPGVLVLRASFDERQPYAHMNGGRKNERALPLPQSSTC
Chain of Casein kinase I isoform delta (P48730 whole entry, canonical isoform): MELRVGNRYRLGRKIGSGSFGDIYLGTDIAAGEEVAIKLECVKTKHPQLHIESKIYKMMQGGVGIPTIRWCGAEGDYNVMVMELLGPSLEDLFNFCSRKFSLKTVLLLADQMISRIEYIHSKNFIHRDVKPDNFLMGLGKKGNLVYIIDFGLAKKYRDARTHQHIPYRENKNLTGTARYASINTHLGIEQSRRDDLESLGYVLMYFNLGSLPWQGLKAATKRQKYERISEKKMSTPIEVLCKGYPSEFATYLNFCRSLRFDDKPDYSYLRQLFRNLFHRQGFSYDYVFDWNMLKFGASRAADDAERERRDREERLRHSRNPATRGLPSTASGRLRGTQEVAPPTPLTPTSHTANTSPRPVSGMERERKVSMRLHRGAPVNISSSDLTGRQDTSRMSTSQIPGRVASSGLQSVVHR
Chain of Inhibitor of nuclear factor kappa-B kinase subunit beta (O14920 whole entry): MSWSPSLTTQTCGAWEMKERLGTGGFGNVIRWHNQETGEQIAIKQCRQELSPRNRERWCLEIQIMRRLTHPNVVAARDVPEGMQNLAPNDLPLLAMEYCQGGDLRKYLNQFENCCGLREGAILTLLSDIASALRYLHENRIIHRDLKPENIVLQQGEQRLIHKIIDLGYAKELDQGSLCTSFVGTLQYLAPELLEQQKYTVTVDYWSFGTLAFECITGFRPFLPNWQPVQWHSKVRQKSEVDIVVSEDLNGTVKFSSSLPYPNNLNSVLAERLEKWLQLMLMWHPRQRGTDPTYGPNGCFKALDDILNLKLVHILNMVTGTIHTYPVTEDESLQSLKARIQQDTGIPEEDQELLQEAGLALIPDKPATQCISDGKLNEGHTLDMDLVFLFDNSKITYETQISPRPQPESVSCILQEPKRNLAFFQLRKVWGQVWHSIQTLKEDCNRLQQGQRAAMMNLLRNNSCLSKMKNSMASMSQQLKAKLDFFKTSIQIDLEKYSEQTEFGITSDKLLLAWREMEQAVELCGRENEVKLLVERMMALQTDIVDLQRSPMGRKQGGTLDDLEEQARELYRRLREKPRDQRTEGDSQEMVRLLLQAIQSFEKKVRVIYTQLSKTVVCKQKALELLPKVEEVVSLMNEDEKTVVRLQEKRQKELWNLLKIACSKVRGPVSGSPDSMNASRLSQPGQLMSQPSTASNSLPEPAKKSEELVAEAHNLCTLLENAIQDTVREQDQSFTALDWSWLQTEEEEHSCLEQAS
Chain of Serine/threonine-protein kinase Nek2 (P51955 whole entry): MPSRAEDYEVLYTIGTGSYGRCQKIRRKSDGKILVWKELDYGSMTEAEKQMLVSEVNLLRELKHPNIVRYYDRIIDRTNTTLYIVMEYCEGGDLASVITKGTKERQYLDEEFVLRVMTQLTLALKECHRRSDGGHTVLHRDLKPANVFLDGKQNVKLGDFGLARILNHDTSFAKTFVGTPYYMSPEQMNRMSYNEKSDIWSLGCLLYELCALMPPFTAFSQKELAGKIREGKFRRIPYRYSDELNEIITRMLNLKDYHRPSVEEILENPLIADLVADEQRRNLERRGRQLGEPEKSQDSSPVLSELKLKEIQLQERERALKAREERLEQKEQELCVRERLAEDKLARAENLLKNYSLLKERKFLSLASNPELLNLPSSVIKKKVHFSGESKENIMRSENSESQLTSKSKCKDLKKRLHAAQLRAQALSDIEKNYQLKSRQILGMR
Chain of Serine/threonine-protein kinase Chk1 (O14757 whole entry): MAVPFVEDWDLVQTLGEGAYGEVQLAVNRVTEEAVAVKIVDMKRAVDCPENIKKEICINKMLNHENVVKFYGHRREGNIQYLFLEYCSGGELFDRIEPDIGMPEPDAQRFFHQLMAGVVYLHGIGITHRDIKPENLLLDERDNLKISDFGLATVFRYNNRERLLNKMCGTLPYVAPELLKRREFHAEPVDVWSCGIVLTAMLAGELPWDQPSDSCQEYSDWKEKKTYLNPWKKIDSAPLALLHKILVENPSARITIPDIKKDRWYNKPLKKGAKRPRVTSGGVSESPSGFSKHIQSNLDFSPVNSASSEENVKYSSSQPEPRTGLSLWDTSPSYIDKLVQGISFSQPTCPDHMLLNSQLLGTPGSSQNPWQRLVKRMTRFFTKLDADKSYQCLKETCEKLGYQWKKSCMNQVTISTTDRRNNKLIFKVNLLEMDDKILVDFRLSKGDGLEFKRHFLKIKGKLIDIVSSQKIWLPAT
Chain of RAC-alpha serine/threonine-protein kinase (P31749 whole entry): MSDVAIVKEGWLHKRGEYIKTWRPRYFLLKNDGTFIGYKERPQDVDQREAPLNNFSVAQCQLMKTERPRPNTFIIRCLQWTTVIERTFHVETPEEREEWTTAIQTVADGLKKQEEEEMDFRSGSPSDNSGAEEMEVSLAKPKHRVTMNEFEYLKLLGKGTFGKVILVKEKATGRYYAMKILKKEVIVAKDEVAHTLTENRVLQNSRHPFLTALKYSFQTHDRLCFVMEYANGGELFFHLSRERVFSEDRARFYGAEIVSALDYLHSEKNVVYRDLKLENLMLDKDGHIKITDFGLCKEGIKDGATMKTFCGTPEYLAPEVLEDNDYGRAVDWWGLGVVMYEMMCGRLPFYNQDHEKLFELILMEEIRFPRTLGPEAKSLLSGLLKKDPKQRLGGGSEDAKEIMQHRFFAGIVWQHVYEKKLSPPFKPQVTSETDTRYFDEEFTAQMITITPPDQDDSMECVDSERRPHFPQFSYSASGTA
Chain of Mitogen-activated protein kinase 1 (P28482 whole entry): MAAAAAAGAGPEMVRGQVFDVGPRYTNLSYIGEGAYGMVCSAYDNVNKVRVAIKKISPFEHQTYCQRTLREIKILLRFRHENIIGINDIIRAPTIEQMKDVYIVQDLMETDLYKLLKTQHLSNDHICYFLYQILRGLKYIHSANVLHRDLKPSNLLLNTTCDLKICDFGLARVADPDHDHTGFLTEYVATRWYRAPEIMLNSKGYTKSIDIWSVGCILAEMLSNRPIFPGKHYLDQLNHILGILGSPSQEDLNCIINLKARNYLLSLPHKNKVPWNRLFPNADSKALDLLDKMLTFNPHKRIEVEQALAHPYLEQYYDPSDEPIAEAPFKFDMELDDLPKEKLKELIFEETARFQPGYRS
Chain of Interleukin-1 receptor-associated kinase 4 (Q9NWZ3 whole entry): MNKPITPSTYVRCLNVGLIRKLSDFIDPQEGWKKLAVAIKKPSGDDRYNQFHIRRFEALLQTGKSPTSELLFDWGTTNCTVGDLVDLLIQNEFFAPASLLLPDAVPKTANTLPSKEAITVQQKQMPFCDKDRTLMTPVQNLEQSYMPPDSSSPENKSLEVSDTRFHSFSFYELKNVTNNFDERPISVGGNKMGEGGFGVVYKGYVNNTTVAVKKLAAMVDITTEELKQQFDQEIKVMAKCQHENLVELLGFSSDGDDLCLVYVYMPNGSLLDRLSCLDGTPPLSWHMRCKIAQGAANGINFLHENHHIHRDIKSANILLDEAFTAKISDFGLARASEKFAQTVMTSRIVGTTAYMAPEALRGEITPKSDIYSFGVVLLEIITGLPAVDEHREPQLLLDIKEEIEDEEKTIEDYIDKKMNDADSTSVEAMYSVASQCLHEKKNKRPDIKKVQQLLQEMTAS
Description for THP-1: Antiinflammatory activity in human THP1 cells assessed as inhibition of LPS-induced TNFalpha production treated 30 mins before LPS addition measured after 3 hrs by ELISA

Regarding `O=C1c2oc(-c3ccc(Cl)cc3)cc2Cc2cc(N3CCNCC3)ccc2N1Cc1ccccn1`, it took 17.4 µM to reach half-maximal cytotoxicity in [1] (CC50).
For `O=C1c2oc(-c3ccc(Cl)cc3)cc2Cc2cc(N3CCNCC3)ccc2N1Cc1ccccc1-c1cccnc1`, the IC50 (as a rule, the concentration needed to halve the response being measured) was 11 µM in data set [2]; 24 µM in data set [3]; 16 µM in [4]; > 30 µM in data set [5]; > 30 µM in [6]; > 30 µM in [7]. Besides, the IC50 in [8] is > 20 µM; in data set [9] it was > 19 µM; in [10], > 30 µM; on Ephrin type-B receptor 4, > 30 µM; in data set [11], 26 µM; in data set [12], > 18 µM. In addition, the half-maximal inhibitory concentration (IC50) in data set [13] was 27 µM; in data set [14], > 30 µM; in data set [15], 10 µM; in [16] it was > 30 µM; in data set [17] it was > 30 µM; in data set [18], > 12 µM. The IC50 in [19] is > 30 µM; in data set [20] it was 13 µM; in data set [21], 0.022 µM; in [22] it was > 30 µM.
With `N#Cc1ccc(-c2cc3c(o2)C(=O)N(Cc2ccccc2-c2cncnc2)c2ccc(N4CCNCC4)cc2C3)cc1`, the EC50 (commonly the midpoint of the concentration-response curve) in the data set with THP-1 came out at 0.15 µM.
